According to article PMC7871173 (Journal of medicinal chemistry, 2019):
“Also recorded” adds a separate entry of the source.

Key:
CB1 receptor [1] = biological target: T1, CB1 receptor (Homo sapiens, UniProt P21554); assay: cell-based; conditions: read-out: Emax PAM, maximum EC20 CP 55,940-induced β-arrestin recruitment relative to maximum achievable with CP 55,940
CB1 receptor [2] = biological target: T2, CB1 receptor (Mus musculus, UniProt P47746); conditions: for activity in the tetrad or psychoactive effects: see Supporting Information
CB1 receptor [3] = biological target: T2, CB1 receptor; assay: Augmentation of CP 55,940 antinociception in the tail withdrawal test; type: in vivo; conditions: 40 mg/kg
CB1 receptor [4] = biological target: T1, CB1 receptor; type: cell-based; conditions: for CB1 PAM activity (in words): enhancement of CP 55,940-induced β-arrestin recruitment; for enhancement of CP 55,940-induced β-arrestin recruitment: at 300 nM
CB1 receptor [5] = biological target: T1, CB1 receptor; type: cell-based; conditions: compound alone; relative to maximum achievable with CP 55,940
CB1 receptor [6] = biological target: T1, CB1 receptor; type: binding; conditions: 1 μM compound; for % enhancement of [3H]CP 55,940 binding: three independent experiments
[7] = test system: mouse chronic constrictive injury of the sciatic nerve (CCI) model of neuropathic pain; conditions: 40 mg/kg; cited from earlier work
[8] = Mouse liver microsomal stability; type: in vitro ADME; conditions: mouse liver microsomes
in vitro = conditions: rat, rat liver microsomes
[9] = compared to nearest nitro analogue

T2 sequence (P47746 whole entry): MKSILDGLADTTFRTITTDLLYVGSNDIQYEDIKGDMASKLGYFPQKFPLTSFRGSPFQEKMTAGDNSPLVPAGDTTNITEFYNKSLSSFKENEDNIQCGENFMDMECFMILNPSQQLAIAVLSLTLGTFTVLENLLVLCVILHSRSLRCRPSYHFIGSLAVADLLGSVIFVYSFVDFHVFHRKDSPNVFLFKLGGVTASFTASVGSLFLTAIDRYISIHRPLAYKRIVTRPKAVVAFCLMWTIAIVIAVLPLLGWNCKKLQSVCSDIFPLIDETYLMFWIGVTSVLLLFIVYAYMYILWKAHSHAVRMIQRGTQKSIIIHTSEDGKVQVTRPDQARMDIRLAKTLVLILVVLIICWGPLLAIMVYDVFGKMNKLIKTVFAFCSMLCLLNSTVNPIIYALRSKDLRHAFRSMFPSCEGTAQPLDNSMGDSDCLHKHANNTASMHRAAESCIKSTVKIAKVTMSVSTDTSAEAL
T1 sequence (P21554 whole entry): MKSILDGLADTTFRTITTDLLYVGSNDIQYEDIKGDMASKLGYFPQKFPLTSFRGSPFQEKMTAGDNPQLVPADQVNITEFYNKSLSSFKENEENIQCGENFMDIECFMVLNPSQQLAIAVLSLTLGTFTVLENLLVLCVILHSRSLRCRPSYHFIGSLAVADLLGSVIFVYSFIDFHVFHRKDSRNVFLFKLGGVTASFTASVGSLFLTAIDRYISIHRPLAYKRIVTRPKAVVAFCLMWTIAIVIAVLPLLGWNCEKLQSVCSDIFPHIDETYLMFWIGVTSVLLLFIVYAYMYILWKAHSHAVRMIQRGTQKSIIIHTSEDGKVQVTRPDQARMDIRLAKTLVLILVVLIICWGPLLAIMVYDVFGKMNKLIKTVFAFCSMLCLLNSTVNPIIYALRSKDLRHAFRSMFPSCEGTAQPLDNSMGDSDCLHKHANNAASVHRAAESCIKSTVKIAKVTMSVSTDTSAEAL

N#Cc1ccc2c(C(CC(F)(F)F)c3cccs3)c(-c3ccccc3)[nH]c2c1 (racemic) [(±)-1, 2-Phenyl-3-(3,3,3-trifluoro-1-(thiophen-2-yl)propyl)-1H-indole-6-carbonitrile]
Emax (CB1 receptor [1]): 100 ± 25%
antinociception in the tail withdrawal test (CB1 receptor [2]; 40 mg/kg, administered alone): did not produce antinociception
hypothermia (CB1 receptor [2]; 40 mg/kg, administered alone): did not produce hypothermia
immobility in the catalepsy bar test (CB1 receptor [2]; 40 mg/kg, administered alone): did not produce hypothermia or cause immobility in the catalepsy bar test
locomotor behavior (distance traveled, immobility time) (CB1 receptor [2]; 40 mg/kg, administered alone): did not affect either the distance traveled or immobility time
pharmacological effects in the tetrad assay (CB1 receptor [2]; 40 mg/kg, administered alone): did not elicit pharmacological effects
activity in the tetrad or psychoactive effects (CB1 receptor [2]): neither ZCZ011 or (±)-1 showed any activity in the tetrad or psychoactive effects
shift of dose–response relationship of CP 55,940 in producing antinociception (CB1 receptor [3]): significant leftward shifts

N#Cc1ccc2c(C(C[N+](=O)[O-])c3cccs3)c(-c3ccccc3)[nH]c2c1 (racemic) [(±)-8]
CB1 PAM activity (in words) (CB1 receptor [4]): moderately potent and efficacious CB1 PAMs

N#Cc1ccc2c(C(C[N+](=O)[O-])c3cccs3)c(-c3ccccc3)[nH]c2c1 (single isomer, unassigned; (+)) [(+)-8]
CB1 PAM activity (in words) (CB1 receptor [4]): effectively pure PAMs
Emax Ago (CB1 receptor [5]): 6%
enhancement in binding of [3H]CP 55,940 (in words) (CB1 receptor [6]): no enhancement

N#Cc1ccc2c(C(C[N+](=O)[O-])c3cccs3)c(-c3ccccc3)[nH]c2c1 (single isomer, unassigned; (-)) [(−)-8]
CB1 PAM activity (in words) (CB1 receptor [4]): effectively pure PAMs
enhancement in binding of [3H]CP 55,940 (in words) (CB1 receptor [6]): no enhancement

N#Cc1ccc2c([C@@H](CC(F)(F)F)c3cccs3)c(-c3ccccc3)[nH]c2c1 [(R)-(−)-1]
Emax (CB1 receptor [1]): 125 ± 29%
enhancement in binding of [3H]CP 55,940 (in words) (CB1 receptor [6]): significant enhancement
% enhancement of [3H]CP 55,940 binding (CB1 receptor [6]): 131.4 ± 4.3%

N#Cc1ccc2c([C@H](CC(F)(F)F)c3cccs3)c(-c3ccccc3)[nH]c2c1 [(S)-(+)-1]
Emax (CB1 receptor [1]): 79 ± 32%
enhancement in binding of [3H]CP 55,940 (in words) (CB1 receptor [6]): significant enhancement
% enhancement of [3H]CP 55,940 binding (CB1 receptor [6]): 144.4 ± 3.5%

Cc1ccc2[nH]c(-c3ccccc3)c(C(C[N+](=O)[O-])c3cccs3)c2c1 (stereo not shown) [Compound 2]
CB1 PAM activity (in words) (CB1 receptor [4]): poor potency

N#Cc1ccc2[nH]c(-c3ccccc3)c(C(C[N+](=O)[O-])c3cccs3)c2c1 (stereo not shown) [Compound 3]
CB1 PAM activity (in words) (CB1 receptor [4]): poor potency

O=[N+]([O-])CC(c1cccs1)c1c(-c2ccccc2)[nH]c2ccc([N+](=O)[O-])cc12 (stereo not shown) [Compound 4]
CB1 PAM activity (in words) (CB1 receptor [4]): poor potency

Cc1ccc2c(C(C[N+](=O)[O-])c3cccs3)c(-c3ccccc3)[nH]c2c1 (stereo not shown) [Compound 5, reference compound]
anti-allodynic effects [7]: produces anti-allodynic effects
CB1 PAM activity (in words) (CB1 receptor [4]): moderately potent and efficacious CB1 PAMs
half-life [8]: ≤ 10 min
half-life (in vitro): ≤ 10 min
activity in the tetrad or psychoactive effects (CB1 receptor [2]): neither ZCZ011 or (±)-1 showed any activity in the tetrad or psychoactive effects
enhancement in binding of [3H]CP 55,940 (in words) (CB1 receptor [6]): significant enhancement

O=[N+]([O-])CC(c1cccs1)c1c(-c2ccccc2)[nH]c2cc(Cl)ccc12 (stereo not shown) [Compound 6]
CB1 PAM activity (in words) (CB1 receptor [4]): moderately potent and efficacious CB1 PAMs

O=[N+]([O-])CC(c1cccs1)c1c(-c2ccccc2)[nH]c2cc(C(F)(F)F)ccc12 (stereo not shown) [Compound 7]
CB1 PAM activity (in words) (CB1 receptor [4]): moderately potent and efficacious CB1 PAMs

Cc1ccc2c(C(CC#N)c3ccccc3)c(-c3ccccc3)[nH]c2c1 (stereo not shown) [Compound 30]
CB1 PAM activity (in words) (CB1 receptor [4]): modest

N#CCC(c1ccccc1)c1c(-c2ccccc2)[nH]c2cc(Cl)ccc12 (stereo not shown) [Compound 31]
CB1 PAM activity (in words) (CB1 receptor [4]): somewhat reduced potency and efficacy
metabolic stability in rat liver microsomes (in words) [9]: similarly poor metabolic stability

Cc1ccc2c(C(c3ccccc3)C(C#N)C#N)c(-c3ccccc3)[nH]c2c1 (stereo not shown) [Compound 32]
CB1 PAM activity (in words) (CB1 receptor [4]): modest

Cc1ccc2c(C(C(=O)C(F)(F)F)c3ccccc3)c(-c3ccccc3)[nH]c2c1 (stereo not shown) [Compound 38]
enhancement of CP 55,940-induced β-arrestin recruitment (CB1 receptor [4]): 50–100%

Cc1ccc2c(C(CC(F)(F)F)c3ccccc3)c(-c3ccccc3)[nH]c2c1 (stereo not shown) [Compound 39]
enhancement of CP 55,940-induced β-arrestin recruitment (CB1 receptor [4]): 50–100%

O=C(O)c1ccc2c(C(CC(F)(F)F)c3cccs3)c(-c3ccccc3)[nH]c2c1 (stereo not shown) [Compound 51]
CB1 PAM activity (in words) (CB1 receptor [4]): none of 6-CO2H (51), 6-CH2OH (52), 6-NHAc (53), 6-NH2 (55), or 6-NHSO2Me (56) gave active compounds; also recorded: inactive

OCc1ccc2c(C(CC(F)(F)F)c3cccs3)c(-c3ccccc3)[nH]c2c1 (stereo not shown) [Compound 52, (2-Phenyl-3-(3,3,3-trifluoro-1-(thiophen-2-yl)propyl)-1H-indol-6-yl)methanol]
CB1 PAM activity (in words) (CB1 receptor [4]): none of 6-CO2H (51), 6-CH2OH (52), 6-NHAc (53), 6-NH2 (55), or 6-NHSO2Me (56) gave active compounds

CC(=O)Nc1ccc2c(C(CC(F)(F)F)c3cccs3)c(-c3ccccc3)[nH]c2c1 (stereo not shown) [Compound 53, N-(2-Phenyl-3-(3,3,3-trifluoro-1-(thiophen-2-yl)propyl)-1H-indol-6-yl)acetamide]
CB1 PAM activity (in words) (CB1 receptor [4]): none of 6-CO2H (51), 6-CH2OH (52), 6-NHAc (53), 6-NH2 (55), or 6-NHSO2Me (56) gave active compounds

CC(=O)c1ccc2c(C(CC(F)(F)F)c3cccs3)c(-c3ccccc3)[nH]c2c1 (stereo not shown) [Compound 54, 1-(2-Phenyl-3-(3,3,3-trifluoro-1-(thiophen-2-yl)propyl)-1H-indol-6-yl)ethan-1-one]
CB1 PAM activity (in words) (CB1 receptor [4]): potent and efficacious

Nc1ccc2c(C(CC(F)(F)F)c3cccs3)c(-c3ccccc3)[nH]c2c1 (stereo not shown) [Compound 55, 2-Phenyl-3-(3,3,3-trifluoro-1-(thiophen-2-yl)propyl)-1H-indol-6-amine]
CB1 PAM activity (in words) (CB1 receptor [4]): none of 6-CO2H (51), 6-CH2OH (52), 6-NHAc (53), 6-NH2 (55), or 6-NHSO2Me (56) gave active compounds

CS(=O)(=O)Nc1ccc2c(C(CC(F)(F)F)c3cccs3)c(-c3ccccc3)[nH]c2c1 (stereo not shown) [Compound 56, N-(2-Phenyl-3-(3,3,3-trifluoro-1-(thiophen-2-yl)propyl)-1H-indol-6-yl)methanesulfonamide]
CB1 PAM activity (in words) (CB1 receptor [4]): none of 6-CO2H (51), 6-CH2OH (52), 6-NHAc (53), 6-NH2 (55), or 6-NHSO2Me (56) gave active compounds
